Structures can show the parent of a compound that is named as a salt.

T1 sequence (P49841 whole entry): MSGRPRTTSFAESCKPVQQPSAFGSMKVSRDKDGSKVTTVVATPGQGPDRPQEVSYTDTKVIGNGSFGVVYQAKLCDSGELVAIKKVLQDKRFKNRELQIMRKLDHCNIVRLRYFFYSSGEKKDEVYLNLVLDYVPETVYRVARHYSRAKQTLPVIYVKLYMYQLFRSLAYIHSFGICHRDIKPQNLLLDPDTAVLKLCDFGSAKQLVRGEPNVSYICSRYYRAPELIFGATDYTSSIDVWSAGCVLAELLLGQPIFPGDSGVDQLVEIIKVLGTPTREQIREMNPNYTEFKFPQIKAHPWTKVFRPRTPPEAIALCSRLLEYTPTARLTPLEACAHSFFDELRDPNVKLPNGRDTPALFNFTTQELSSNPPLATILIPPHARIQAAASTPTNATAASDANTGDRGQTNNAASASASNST

This test addresses T1, recombinant human GSK3β (Homo sapiens, UniProt P49841).
T1 construct: purchased Dundee University, UK
Description: GSK3β Scintillation Proximity Assay (ATP competition). The class given is biochemical. The note with it: SPA, 1 μM ATP, 1 μM biotinylated peptide substrate; Ki calculated with Km of ATP 20 μM. How it is done: Determination of ATP Competition in Scintillation Proximit), GSK3β Assay.
GSK3β Scintillation Proximity Assay.
The competition experiments were carried out in duplicate with 10 different concentrations of the inhibitors in clear-bottom microtiter plates (Wallac, Finland). A biotinylated peptide substrate, Biotin-Ala-Ala-Glu-Glu-Leu-Asp-Ser-Arg-Ala-Gly-Ser(PO3H2)-Pro-Gln-Leu (AstraZeneca, Lund), was added at a final concentration of 1 μM in an assay buffer containing 1 mU recombinant human GSK3β (Dundee University, UK), 12 mM morpholinepropanesulfonic acid (MOPS), pH 7.0, 0.3 mM EDTA, 0.01% β-mercaptorethanol, 0.004% Brij 35 (a […] detergent), 0.5% glycerol and 0.5 μg BSA/25 μl. The reaction was initiated by the addition of 0.04 μCi [γ-^33P]ATP (Amersham, UK) and unlabelled ATP at a final concentration of 1 μM and assay volume of 25 μl. After incubation for 20 minutes at room temperature, each reaction was terminated by the addition of 25 μl stop solution containing 5 mM EDTA, 50 μM ATP, 0.1% Triton X-100 and 0.25 mg streptavidin coated Scintillation Proximity Assay (SPA) beads (Amersham, UK). After 6 hours the radioactivity was determined in a liquid scintillation counter (1450 MicroBeta Trilux, Wallac). The inhibition curves were analysed by non-linear regression using GraphPad Prism, USA. The Km value of ATP for GSK3β, used to calculate the inhibition constants (Ki) of the various compounds, was 20 μM.
As usually defined, the Ki is the dissociation constant of the complex between target and ligand, obtained from inhibition or displacement. As for `COCCCNC(=O)c1c(Br)cnc2[nH]c(-c3ccc(CN4CCOCC4)cc3)nc12` [Example 13, 6-Bromo-S-(3-methoxypropyl)-2-[4-(morpholin-4-ylmethyl)phenyl]-3H-imidazo[4,5-b]pyridine-7-carboxamide], the Ki was 390 nM.

For the compound `COCCCNC(=O)c1c(Cl)cnc2[nH]c(-c3ccc(CN4CCOCC4)cc3)nc12` [Example 14, 6-Chloro-N-(3-methoxypropyl)-2-[4-(morpholin-4-ylmethyl)phenyl]-3H-imidazo[4,5-b]pyridine-7-carboxamide], the Ki is 1400 nM.

As to `COCCCNC(=O)c1c(F)cnc2[nH]c(-c3ccc(CN4CCOCC4)cc3)nc12` [Example 21, 6-Fluoro-N-(3-methoxypropyl)-2-[4-(morpholin-4-ylmethyl)phenyl]-3H-imidazo[4,5-b]pyridine-7-carboxamide hydrochloride], the Ki was 779 nM.

(Values after patent publication US20100234593A1, “Imidazo[4,5-B]Pyridine-7-Carboxamides 704” (ASTRAZENECA AB, priority 2007, published 2010).)
